From patent US20070254907A1, “COMPOSITIONS AND METHODS FOR CONTROLLING INFESTATION” (HATCHTECH PTY LTD, priority 2003, published 2007)
“Also recorded” adds a separate entry of the source. Where two headings read alike, the source gives them in different places.

Tests used:
Plutella xylostella eggs = test: whole plant or invertebrate; assay type: in vivo; conditions: for Number hatched / Number unhatched: dipped 2-10 s, day 6 post laying
Protocol: The ovicidal efficacy of 2-acetyl-1-tetralone was also tested against Plutella eggs.

[1] = test system: Helicoverpa armigera eggs; test: Egg hatching of Helicoverpa armigera
Protocol: A range of concentrations were made up in water and the eggs placed in the solutions for approximately 2-10 seconds. The eggs which had been laid on cloth were then blotted dry and placed in an incubator at 26° C. for 3-4 days until hatch. Hatch rates were then assessed compared to a water only treated control (FIG. 5).
The compound was dissolved in 100% diethoxyglycol and diluted to a final concentration of 1% in water.
Several hundred Helicoverpa armigera eggs (Tatura×Toowoomba strains) were collected, that had been laid on fine mesh cloth over a 24 hour period.
Batches of Helicoverpa eggs were exposed to a specific inhibitor solution for between 2-10 seconds the excess solution drained by blotting with dry tissue paper. The egg masses were then placed in a humid box at 25 degrees until egg hatch. Control eggs were exposed to absolute methanol as described above. At day 6 post laying the eggs were assessed from the different treatments and the percentage of egg hatch determined relative to the control as shown in Table 12.
Batches of Helicoverpa eggs were then exposed to a specific inhibitor solution for between 2-10 seconds the excess solution drained by blotting with dry tissue paper. The egg masses were then placed in a humid box at 25° C. until egg hatch. Control eggs were exposed to absolute methanol as described above. At day 6 post laying the eggs were assessed from the different treatments and the percentage of egg hatch determined relative to the control as shown in Table 13.

lice eggs = test: whole plant or invertebrate; assay type: in vivo; conditions: for inhibition at 10000 µM / inhibition at 2500 µM / inhibition at 5000 µM: read-out: Percent inhibition of egg hatching; for inhibition at 2500 µM: 2.5 mM; for inhibition at 5000 µM: 5 mM
[2] = Pediculus humanus, 24 h, treated 24 hr post egg laying
[3] = Pediculus humanus, 48 h, treated 48 hr post egg laying
[4] = Pediculus humanus, 72 h, treated 72 hr post egg laying
[5] = Pediculus humanus, 96 h, treated 96 hr post egg laying
[6] = Pediculus humanus, 120 h, treated 120 hr post egg laying
[7] = Pediculus humanus, 144 h, treated 144 hr post egg laying

`c1cnc2c(c1)ccc1cccnc12` [1,10-phenanthroline, reference compound] was tested. Which “effect on egg hatching of Plutella xylostella (words)” value (Plutella xylostella eggs; 10 mM) did it give?
The value was “significantly inhibit egg hatching”.

What about the inhibition at 1000 µM (Plutella xylostella eggs; Plutella xylostella, Table 9, 1 mM, relative to control (100% MeOH), read-out: % Inhibition) of the same compound?
The inhibition at 1000 µM was 0%.

And the inhibition at 10000 µM (Plutella xylostella eggs; Plutella xylostella, Table 9, 10 mM, relative to control (100% MeOH), read-out: % Inhibition)?
Its inhibition at 10000 µM is 100%.

What about the Number hatched (Plutella xylostella eggs; Table 9, 1 mM) of the same compound?
Its Number hatched is 15.

And the Number unhatched (Plutella xylostella eggs; Table 9, 1 mM)?
The Number unhatched was 16.

And the Number hatched (Plutella xylostella eggs; Table 9, 10 mM)?
Its Number hatched is 0.

And the Number unhatched (Plutella xylostella eggs; Table 9, 10 mM)?
Its Number unhatched is 45.

What about the “effect on egg hatching of Helicoverpa armigera (words)” value ([1]; 10 mM) of the same compound?
The value was “able to inhibit egg hatching”.

What about the inhibition at 1000 µM ([1]; Helicoverpa armigera) of the same compound?
The inhibition at 1000 µM was 0%.

And the inhibition at 10000 µM ([1]; Helicoverpa armigera)?
The inhibition at 10000 µM was 44%.

And the Number hatched ([1]; Table 12, 10 mM)?
The Number hatched was 31.

What about the Number unhatched ([1]; Table 12, 10 mM) of the same compound?
The Number unhatched was 16.

What about the “inhibition of lice egg hatching following washing of eggs in water” value (lice eggs; 10 mM, then 1 minute wash) of the same compound?
The value was “still highly efficacious at inhibiting lice egg hatching”.

What about the “embryo development in treated eggs” value (lice eggs; 10 mM, a proportion of eggs) of the same compound?
The value was “had embryos that appeared to develop normally yet failed to hatch”.

And the “inhibition of egg hatching in lice” value (lice eggs; 10 mM, eggs treated 5 days post laying, 10 min)?
The value was “significantly inhibited egg hatching”.

And the inhibition at 1000 µM (lice eggs; Pediculus humanus, 1 mM, eggs treated 5 days post laying, 10 min, read-out: level of inhibition of egg hatching compared to controls)?
Its inhibition at 1000 µM is ~30%.

What about the inhibition at 10000 µM (lice eggs; Pediculus humanus, 10 mM, 10 minutes, not washed, treated 24 hr post laying) of the same compound?
The inhibition at 10000 µM was 100%.

What about the inhibition at 10000 µM (lice eggs; Pediculus humanus, 10 mM, 10 minutes, not washed, treated 48 hr post laying) of the same compound?
Its inhibition at 10000 µM is 100%.

And the inhibition at 10000 µM (lice eggs; Pediculus humanus, 10 mM, 10 minutes, not washed, treated 72 hr post laying)?
Its inhibition at 10000 µM is 100%.

And the inhibition at 10000 µM (lice eggs; Pediculus humanus, 10 mM, 10 minutes, not washed, treated 96 hr post laying)?
The inhibition at 10000 µM was 100%.

And the inhibition at 10000 µM (lice eggs; Pediculus humanus, 10 mM, 10 minutes, not washed, treated 120 hr post laying)?
Its inhibition at 10000 µM is 100%.

What about the inhibition at 10000 µM (lice eggs; Pediculus humanus, 10 mM, 10 minutes, washed for 1 minute, treated 24 hr post laying) of the same compound?
The inhibition at 10000 µM was 100%.

And the inhibition at 10000 µM (lice eggs; Pediculus humanus, 10 mM, 10 minutes, washed for 1 minute, treated 48 hr post laying)?
Its inhibition at 10000 µM is 100%.

What about the inhibition at 10000 µM (lice eggs; Pediculus humanus, 10 mM, 10 minutes, washed for 1 minute, treated 72 hr post laying) of the same compound?
The inhibition at 10000 µM was 100%.

What about the inhibition at 10000 µM (lice eggs; Pediculus humanus, 10 mM, 10 minutes, washed for 1 minute, treated 96 hr post laying) of the same compound?
The inhibition at 10000 µM was 97%.

What about the inhibition at 10000 µM (lice eggs; Pediculus humanus, 10 mM, 10 minutes, washed for 1 minute, treated 120 hr post laying) of the same compound?
The inhibition at 10000 µM was 62%.

What about the inhibition at 2500 µM (lice eggs; [2]) of the same compound?
The inhibition at 2500 µM was 100%.

What about the inhibition at 5000 µM (lice eggs; [2]) of the same compound?
The inhibition at 5000 µM was 100%.

And the inhibition at 10000 µM (lice eggs; Pediculus humanus, 24 h, 10 mM, treated 24 hr post egg laying)?
The inhibition at 10000 µM was 100%.

And the inhibition at 2500 µM (lice eggs; [3])?
The inhibition at 2500 µM was 100%.

What about the inhibition at 5000 µM (lice eggs; [3]) of the same compound?
Its inhibition at 5000 µM is 100%.

And the inhibition at 10000 µM (lice eggs; Pediculus humanus, 48 h, 10 mM, treated 48 hr post egg laying)?
Its inhibition at 10000 µM is 100%.

And the inhibition at 2500 µM (lice eggs; [4])?
Its inhibition at 2500 µM is 85%.

What about the inhibition at 5000 µM (lice eggs; [4]) of the same compound?
Its inhibition at 5000 µM is 100%.

What about the inhibition at 10000 µM (lice eggs; Pediculus humanus, 72 h, 10 mM, treated 72 hr post egg laying) of the same compound?
The inhibition at 10000 µM was 100%.

What about the inhibition at 2500 µM (lice eggs; [5]) of the same compound?
The inhibition at 2500 µM was 85%.

And the inhibition at 5000 µM (lice eggs; [5])?
Its inhibition at 5000 µM is 100%.

And the inhibition at 10000 µM (lice eggs; Pediculus humanus, 96 h, 10 mM, treated 96 hr post egg laying)?
The inhibition at 10000 µM was 100%.

What about the inhibition at 2500 µM (lice eggs; [6]) of the same compound?
The inhibition at 2500 µM was 89%.

And the inhibition at 5000 µM (lice eggs; [6])?
The inhibition at 5000 µM was 93%.

And the inhibition at 10000 µM (lice eggs; Pediculus humanus, 120 h, 10 mM, treated 120 hr post egg laying)?
Its inhibition at 10000 µM is 100%.

What about the inhibition at 2500 µM (lice eggs; [7]) of the same compound?
Its inhibition at 2500 µM is 60%.

What about the inhibition at 5000 µM (lice eggs; [7]) of the same compound?
The inhibition at 5000 µM was 96%.

What about the inhibition at 10000 µM (lice eggs; Pediculus humanus, 144 h, 10 mM, treated 144 hr post egg laying) of the same compound?
The inhibition at 10000 µM was 100%.

And the “inhibition of egg hatching” value (lice eggs; added within 24 hours of hatching)?
Its value is “variable inhibition of egg hatching”.

And the “inhibition of lice egg hatching in time-course experiments” value (lice eggs; varying concentrations (10, 5, 2.5 mM), 24-144 hr post egg laying)?
Its value is “Significant inhibition; also recorded: significantly inhibit egg hatching in lice at all time points examined”.
